Patent US5368707A, “Convenient determination of trace lead in whole blood and other fluids” (priority 1993, dated 1994)

Legend:
isocitrate dehydrogenase [1] = molecular target: T1, isocitrate dehydrogenase (Sus scrofa, UniProt P33198); assay: Amperometric lead inhibition of ICDH in homogeneous aqueous solution (Example 1); assay type: biochemical, pig; conditions: pH 8.5 Tris; for Current: 0 V
T1 construct: purchased Sigma, St. Louis, Mo; ICD Type VI
T1 sequence (P33198 9-421): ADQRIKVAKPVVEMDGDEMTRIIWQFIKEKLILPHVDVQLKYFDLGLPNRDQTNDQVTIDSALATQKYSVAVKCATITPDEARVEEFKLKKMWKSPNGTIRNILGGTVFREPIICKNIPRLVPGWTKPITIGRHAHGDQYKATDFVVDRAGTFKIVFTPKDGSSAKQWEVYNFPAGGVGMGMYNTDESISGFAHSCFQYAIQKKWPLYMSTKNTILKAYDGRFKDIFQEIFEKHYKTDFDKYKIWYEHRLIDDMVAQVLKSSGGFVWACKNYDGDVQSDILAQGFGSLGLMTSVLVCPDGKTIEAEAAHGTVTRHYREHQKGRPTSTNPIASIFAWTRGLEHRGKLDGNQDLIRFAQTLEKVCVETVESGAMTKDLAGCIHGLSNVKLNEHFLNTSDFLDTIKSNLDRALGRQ
Experimental: Pig heart NADP-linked isocitric dehydrogenase (ICD, EC 1.1.1.42), an oxidoreductase, is sensitive to trace levels of lead ion as low as 1 μg/dl. […] In fact, at low concentrations of activator, e.g., <200 ppb Mn^++, the activity of ICD is proportional to Mn^++ and may be used to determine activator concentration (Guilbault, 1970). Inactivation by inhibitors is useful for determining inhibitor concentration. Specificity of enzymes for activators, or inhibitors, is not as great as for the natural substrate of the enzyme, but in some cases inhibitor concentration may be selectively determined. Silver and mercury have been determined in the presence of each other using isocitrate dehydrogenase (Mealor and Townshend, 1968). However, until now, there has been no satisfactory rapid amperometric method to determine lead ion based on ICD inhibition, much less a simple method to determine low lead ion concentrations in whole blood.
The following example illustrates determination of trace amounts of lead ion in aqueous medium through the inhibition of isocitrate dehydrogenase (ICDH) in homogeneous solution.
Commercially available ICDH (Sigma Chemical Company, St. Louis, Mo.) typically contains considerable amounts of sulfate that interferes with lead ion inhibition of ICDH. Dialysis of ICDH against low ionic strength phosphate buffer caused loss of its activity, which was restored by addition of Mn^2+.
A glassy carbon rod of 3 mm diameter was wrapped in teflon tubing as working electrode and surrounded with a layer of Pt foil as the counter electrode with a silver wire placed in between as the reference electrode. At least one layer of teflon was inserted between two of the three electrodes. All three electrode surfaces were on the same plane. Tubing was fixed on the top of the coplanar electrode surface with an O-ring, forming a microcell of 100-200 μl in volume.
To the microcell was added in sequence: 100 μl 50 mM pH 8.5 Tris buffer, ca. 0.3-0.4 units ICDH and, after 15 min, 5 μl 25 mM NMP-MS, 5 μl 60 mM NADP. The background current was measured at 0 V. 10 μl of 0.5M isocitrate was added and the current measured again. The difference in the two signals was taken as due to the oxidation of isocitrate catalyzed by ICDH.
To measure lead inhibition of ICDH, lead ion was added to the above solution after addition of ICDH but 15 min prior to the addition of NMP-MS and NADP. The current difference with isocitrate was due to inhibition of ICDH by the added lead. FIG. 3 indicates the sensitivity of the electrode to lead ion concentrations in the submicromolar range.

isocitrate dehydrogenase [2] = molecular target: T1, isocitrate dehydrogenase; assay: ICDH inhibition by lead in the presence of CoSO4 (Example 8); assay type: biochemical, pig; conditions: 1 mM CoSO4
Experimental: A major problem in the measurement of lead in blood is the interference by various blood proteins and, as in the majority of clinical samples, the presence of excess amounts of EDTA. The inventors have discovered that lead chelated with EDTA is exchangeable with cobalt(II). As shown in this example, lead Pb(II) is displaced from EDTA by cobalt(II) and detected by its inhibition of isocitrate dehydrogenase (ICDH).
Micromolar concentrations of lead were determined through ICDH inhibition in the presence of 1 mM CoSO4.

Q: Which results are given for `[Pb+2]` [lead ion]?
A: % inhibition (isocitrate dehydrogenase [1]; 1.89 μM Pb++): 85.3%; Current (isocitrate dehydrogenase [1]; 1.89 μM Pb++): 218 nA; % inhibition (isocitrate dehydrogenase [1]; 90.9 μM Pb++): 98.2%; Current (isocitrate dehydrogenase [1]; 90.9 μM Pb++): 26 nA; Inhibition (isocitrate dehydrogenase [2]; 2.4 μM lead): 24%; Inhibition (isocitrate dehydrogenase [2]; 4.8 μM lead): 46%; Inhibition (isocitrate dehydrogenase [2]; 12 μM lead): 71%
